The test system of data set [1] is primary human blood derived macrophages. Description: LPS- or imiquimod-stimulated human blood derived macrophages, cytokine ELISA. The class given is cell-based. The settings on record: after stimulation with either LPS or imiquimod. The method, then: (§1) FIG. 5—Peptide administration reduces the activation of pro-inflammatory DCs and macrophages. (A) C57BL/6 murine splenocytes were stimulated with LPS±peptide RP23 (SEQ ID NO:12) and expression of activation markers on DCs was assessed by flow cytometry. (B) Bone marrow derived murine macrophages were incubated with peptide RP23 (30 mins) and stimulated with LPS (overnight). Positive controls were stimulated with LPS only. Negative controls were unstimulated. Inflammatory cytokine production was assessed by ELISA. (C) CD14+ cells were isolated from human blood and differentiated into macrophages by culturing with human serum. Cells were incubated with peptide RP23 (30 mins), then stimulated overnight with LPS (left panel) or imiquimod (right panel). Inflammatory cytokine (IL-6 or IL-12/23) production was assessed by ELISA. Representative of 6 donors. Data are presented as mean±S.E.M. Statistical significance was determined by ANOVA with Dunnett's multiple comparison test, *p<0.05, **p<0.01, ***p<0.001.
(§2) Using an in vitro culture system, it was determined whether RP23 could suppress the activity of specific pro-inflammatory immune cells. […] The culture of murine bone marrow derived macrophages with RP23 led to reduced IL-6, MCP-1 and TNF release after LPS-stimulation (FIG. 5b). […]
A general note: In an ELISA, binding on a coated surface is turned into a signal by an enzyme label.

The next data set relates to CD11c+ dendritic cells. Description: MHCII on CD11c+ dendritic cells after intra-nasal instillation. It counts as in vivo, mice. The method, then: FIG. 15. Mucosal delivery of RP23 to the lungs decreases activation of antigen presenting cells in the lungs and bronchoalveolar space. (A) C57BL/6 mice (n=5) received either PBS or RP23 by intra-nasal instillation or (B) C57BL/6 mice (n=4) received either PBS, scramble RP23 peptide, or RP23 by intra-nasal instillation, then 24 hours later, Pam2Cys-SK4-PEG(OH) intra-nasally to induce an inflammatory state. 24 hours later, cells from the bronchoalveolar lavage and perfused lungs were collected. The median fluorescence intensity of MHCII on CD11c^+ dendritic cells was determined by flow cytometry. Data are the means+/−SEM. Statistical significance was determined by (A) t-test, ***p<0.001 and (B) ANOVA with Dunnett's multiple comparison test to PBS control, *p<0.05.
Naïve C57BL/6 mice (n=5) received either PBS or RP23 by intra-nasal instillation, then 24 hours later, cells from the bronchoalveolar lavage and perfused lungs were collected. The median fluorescence intensity of MHCII on CD11c+ dendritic cells was determined by flow cytometry. […] To determine if this effect would be maintained once potent lung inflammation was induced, C57BL/6 mice (n=4) received either PBS, scramble RP23 peptide, or RP23 by intra-nasal instillation, then 24 hours later, Pam2Cys-SK4-PEG(OH) was given intra-nasally to induce an inflammatory state.

Data set [2] deals with murine bone marrow derived macrophages. Description: LPS-stimulated bone marrow derived macrophages, cytokine ELISA. The class given is cell-based. The settings on record: after LPS-stimulation. As to the method: as §1
Using an in vitro culture system, it was determined whether RP23 could suppress the activity of specific pro-inflammatory immune cells. […] The culture of murine bone marrow derived macrophages with RP23 led to reduced IL-6, MCP-1 and TNF release after LPS-stimulation (FIG. 5b). Similarly, primary human blood derived macrophages had reduced IL-6 and IL-12/23 release after stimulation with either LPS or imiquimod (FIG. 5c).

The subject of data set [3] is human macrophages/monocytes. The class given is cell-based. The method, then: (§3) FIG. 6—Peptide administration is not cytostatic or cytotoxic to murine and human macrophages/monocytes. Cytostatic/cytotoxic effect of peptide RP23 (SEQ ID NO:12) was assessed after overnight incubation (A) by WST-1 assay in RAW and THP-1 cell lines (data are the means of 2 replicates) (B) by LDH assay in primary murine BMDMs or human MDMs (data are mean±S.E.M).

For data set [4], the system named is murine macrophages/monocytes. The class given is cell-based. As to the method: as §3
The test system of the next data set is C57BL/6 mice. Description: T-cell subsets by flow cytometry in imiquimod-induced psoriasis model. It counts as in vivo. The method, then: FIG. 11. RP23 treatment reduces TCRαβ^+ T-cells in the back skin and increases CD4^+ T-regulatory cells in the lymph nodes of mice in an imiquimod-induced psoriasis model. C57BL/6 female mice received PBS or RP23 injection at day −1, then Aldara cream (5% imiquimod, 57.5 mgs) was applied daily (days 0-4) to the backs to induce psoriasis. At day 15, skin and inguinal lymph nodes were analysed by flow cytometry to quantitate (A) T-cell subsets as a proportion of total leukocytes (CD45^+) in the psoriatic back skin, (B) number of CD3^+CD4^+ TCRαβ T-cells in the skin draining lymph nodes (inguinal), with transcription factor staining, to identify cells with a regulatory phenotype (FoxP3^+). Data are the means+/−SEM (n=4-5). Statistical significance was determined by multiple t-tests, *p<0.05.
C57BL/6 female mice received PBS or RP23 injection at day −1, then Aldara cream (5% imiquimod, 57.5 mgs) was applied daily (days 0-4) to the backs of mice to induce psoriasis. At day 15, skin and inguinal lymph nodes were analysed by flow cytometry to quantitate T-cell subsets as a proportion of total leukocytes (CD45+) in the psoriatic back skin, (FIG. 11A).
CD3+CD4+ TCRαβ T-cells in the skin draining lymph nodes (inguinal) were phenotyped by transcription factor staining and flow cytometry to identify cells with a regulatory phenotype (i.e., FoxP3+).
(In general: A flow cytometer gives signals particle by particle.)

The subject of another data set is UV13-1 tumour cells. Description: murine skin tumour model, peptide trialled as vaccine antigen. The settings on record: 5 nmol sub-cutaneous 21 and 7 days prior to transfer of UV13-1 tumour cells. The class given is in vivo, mice. The method, then: FIG. 1—Peptide administration leads to accelerated skin tumour growth. Mice received sub-cutaneous injections of mixtures containing 5 nmol peptide RP23 (SEQ ID NO:12) (solid line), PBS or liposome controls (dotted line) 21 and 7 days prior to transfer of UV13-1 tumour cells. […] Difference in survival was analysed statistically using a log-rank test.
The inventors initially trialled RP23 (SEQ ID NO: 12) as a vaccine antigen in a murine skin tumour model. […] They then assessed whether RP23 could reduce inflammation in a murine model of contact dermatitis, using a contact hypersensitivity assay (FIG. 2a). […] Using RP23, the inventors carried out a dose-response assay to titrate the immune suppression. Using three doses in the low nanomole range (2, 5 or 10 nmol, about 0.3 0.8, 1.6 mg/kg), a dose-dependent reduction in ear swelling of up to 100% compared to controls was observed (FIG. 3c). […] Further, in a murine model of imiquimod-induced psoriasis (FIG. 4a), a single injection of RP23 reduced local erythema, skin thickness and scaling (FIG. 4b,c).

The test system of data set [5] is primary murine splenic dendritic cells. Nature of the data set: LPS-stimulated murine splenocytes, DC activation (flow cytometry). The class given is cell-based. As to the method:
as §1, §2

The test system of data set [6] is full thickness human skin explants.
Description: RP23^AF594 in a stock emulsion was applied topically to full thickness human skin explants and cultured for 24 hours. Frozen sections were analysed by fluorescence microscopy.
RP23^AF594 was formulated for topical application in an adapted stock emulsion consisting of dimethicone, liquid paraffin, 4-chloro-3-methylphenol, cetrimide and octadecan-1-ol. This was applied topically (7 mg/cm^2, 10 nmol RP23) to full thickness human skin explants and cultured for 24 hours. Frozen sections were prepared for and analysed by fluorescence microscopy.
The mark [7] stands for this setting: Pam2Cys-SK4-PEG(OH) intra-nasally 24 hours after peptide.

We go through one molecule from patent publication US20230002446A1, “ANTI-INFLAMMATORY AGENTS” (The University of Sydney, priority 2019, published 2023).

Structures are written as SMILES. Where a SMILES comes first, the peptide text is derived from it. [ ]: non-standard residue; d: D form. AEEA = NCCOCCOCC(=O)O

As to `CSCC[C@H](NC(=O)COCCOCCNC(=O)[C@H](CCCCN)NC(=O)[C@H](CCCCN)NC(=O)[C@H](CCCCN)NC(=O)[C@@H](N)CCCCN)C(=O)N[C@H](C(=O)N1CCC[C@H]1C(=O)NCC(=O)N[C@H](C(=O)N[C@@H](CCC(N)=O)C(=O)N[C@@H](CO)C(=O)N1CCC[C@H]1C(=O)N[C@@H](Cc1ccccc1)C(=O)N[C@@H](Cc1ccccc1)C(=O)N[C@@H](CC(C)C)C(=O)N[C@@H](CC(C)C)C(=O)N[C@@H](CC(C)C)C(=O)N[C@@H](CC(C)C)C(=O)N[C@@H](CC(C)C)C(=O)N[C@H](C(=O)N[C@H](C(=O)N[C@@H](CC(C)C)C(=O)N[C@H](C(=O)N[C@H](C(=O)N[C@H](C(=O)O)C(C)C)C(C)C)[C@@H](C)O)C(C)C)[C@@H](C)O)[C@@H](C)O)[C@@H](C)O` [RP23] (H-KKKK[AEEA]MTPGTQSPFFLLLLLTVLTVV-OH), in [1], the IL-6 release entry is on record as “reduced” and the IL-12/23 release entry was “reduced”. Also, in the data set on CD11c+ dendritic cells (setting [7]), the “MHCII expression on DC in the bronchoalveolar space” value is “also on DC in the bronchoalveolar space” and the “MHCII expression on lung DC” value is “reduced MHCII expression on lung DC”. Moreover, in the data set with CD11c+ dendritic cells (naive mice, 24 hours after intra-nasal instillation), the “MHCII expression on DC in the lung tissue” value is on record as “substantially reduced”. In data set [2], the IL-6 release entry was “reduced”, the MCP-1 release result is “reduced” and the TNF release entry is listed as “reduced”. In data set [3], the “cytostatic or cytotoxic effects” value is reported as “without causing any cytostatic or cytotoxic effects”. Moreover, in data set [4], the “cytostatic or cytotoxic effects” value is “without causing any cytostatic or cytotoxic effects”. Also, the “TCRαβ+ T-cells in the skin of psoriatic mice” value in the data set with C57BL/6 mice (FIG. 11A) is reported as “reduction in TCRαβ+ T-cells”. In the data set with C57BL/6 mice (inguinal lymph nodes, day 15, with or without T-bet or Rorγt), the “number of FoxP3-expressing CD3+CD4+ TCRαβ T-cells in skin draining lymph nodes” value is “significant increase”. Moreover, in the data set on C57BL/6 mice (injection day -1, day 15, proportion of CD45+ leukocytes), the “proportion of total CD4+ and CD8+ T-cells in the back skin” value is “reduced the proportion of total CD4+ and CD8+ T-cells”. In the data set with UV13-1 tumour cells, the skin tumour growth entry is listed as “modest increase in tumour growth” and the “survival of tumour-bearing mice” value is “succumbed to their tumour earlier”. Further, in [5] (LPS stimulation), the “expression of surface activation markers” value is listed as “reduced”. The “secretion of inflammatory chemokines” value in data set [5] (data not shown) is listed as “reduced the secretion of inflammatory chemokines”. In addition, the “penetration of human skin when topically applied” value in [6] is “able to penetrate the stratum corneum and basement membrane”.
